# Patent US20190382432A1 (Synbias Pharma AG, priority 2013, published 2019)
# Counter-ions that a name gives are not always drawn. Marks after values point to notes of the source that are not given here.
# Key:
# Format in all cases: physicochemical
# [1] = Hygroscopic capacity: water content by Karl-Fischer titration after exposure to temperature and relative humidity; details: 25 or 40 °C, 40-90% rh
# Experimental: Coulometric Karl-Fischer titration (KFT; for determining the water content) was performed with an external drying oven (Metrohm 707 KF; operated at 140° C. with N2 purge). The samples were precisely weighed on an analytical balance (10^−5 g).
# The testing was performed as described in the ICH guidelines.
# [2] = Thermostability on storage at 25, 40 and 100 °C per ICH Q1A (R2), HPLC
# Experimental: HPLC and GC analyses were performed according to standard protocols.
# The testing was performed as described in the ICH guidelines (cf. inter alia ICH Guideline Q1A (R2)).
# [3] = Thermostability under stress conditions (storage at 100 °C for one month), HPLC
# Experimental: Sample S was prepared according to the present invention, as described in Example 3 above. Sample M1 was prepared according to Example 1 of WO 2012/163508 A1, as described in Example 7 above. Finally, Sample M2 was prepared according to Example 2 of WO 2012/163508 A1, as described in Example 7 above.
# The samples were exposed to a temperature of 100° C. for the time period (in weeks) indicated. The testing was performed as described in the ICH Guideline Q1A (R2) (cf. above). The amount of the degradation product (i.e. doxorubicinone) produced as well as those of various impurities (i.e., doxorubicin and four different impurities of yet unknown identity; all given in % (w/w); “n.d.”=not determined) was determined by HPCL analysis (“LT”=less than).
# [4] = Particle size distribution by laser diffraction analysis (Mastersizer 2000); details: wet laser diffraction in acetone; listed as Sample 1, hydrochloride
# Experimental: Laser diffraction analysis was performed in form of wet laser diffraction in acetone: 1750 rpm, 3×20 s cycle time, 60 s background time, without sonication, and 5 min stirring time using a Mastersizer 2000 Particle Size Analyzer (Malvern Instruments Ltd., Malvern, UK) according to the manufacturer's instructions.
# [5] = 25 °C, 12 months, hydrochloride
# [6] = 25 °C, 24 months, hydrochloride
structure (smiles),measurement,setting,value
"COc1cccc2c1C(=O)c1c(O)c3c(c(O)c1C2=O)C[C@@](O)(C(=O)CO)C[C@@H]3O[C@H]1C[C@H](N)[C@H](O)[C@H](C)O1 [epirubicin hydrochloride monohydrate, epirubicin hydrochloride]","Hygroscopic capacity, in words",[1]; up to 15 days,does not exhibit any significant hygroscopic capacity
same,Stability over a time period (overall shelf-life),[2]; 25 °C,≥ 5 years
same,Doxorubicinone,"[2]; 25 °C, 0 months",LT 0.05 % (w/w)
same,Assay (intact epirubicin hydrochloride),"[2]; 25 °C, 0 months, hydrochloride",99.2 % (w/w)
same,Assay (intact epirubicin hydrochloride),"[2]; 25 °C, 1 month, hydrochloride",99.4 % (w/w)
same,Doxorubicinone,"[2]; 25 °C, 1 month, hydrochloride",LT 0.05 % (w/w)
same,Assay (intact epirubicin hydrochloride),"[2]; 25 °C, 3 months, hydrochloride",99.4 % (w/w)
same,Doxorubicinone,"[2]; 25 °C, 3 months, hydrochloride",LT 0.05 % (w/w)
same,Assay (intact epirubicin hydrochloride),"[2]; 25 °C, 6 months, hydrochloride",99.2 % (w/w)
same,Doxorubicinone,"[2]; 25 °C, 6 months, hydrochloride",LT 0.05 % (w/w)
same,Assay (intact epirubicin hydrochloride),[2]; [5],99.0 % (w/w)
same,Doxorubicinone,[2]; [5],LT 0.05 % (w/w)
same,Assay (intact epirubicin hydrochloride),[2]; [6],99.4 % (w/w)
same,Doxorubicinone,[2]; [6],LT 0.05 % (w/w)
same,Assay (intact epirubicin hydrochloride),"[2]; 25 °C, 36 months",99.1 % (w/w)
same,Doxorubicinone,"[2]; 25 °C, 36 months",LT 0.05 % (w/w)
same,Assay (intact epirubicin hydrochloride),"[2]; 25 °C, 48 months",99.1 % (w/w)
same,Doxorubicinone,"[2]; 25 °C, 48 months",LT 0.05 % (w/w)
same,Assay (intact epirubicin hydrochloride),"[2]; 25 °C, 60 months",99.2 % (w/w)
same,Doxorubicinone,"[2]; 25 °C, 60 months",LT 0.05 % (w/w)
same,Stability over a time period (thermostability),[2]; 40 °C,≥ 6 months
same,Doxorubicinone,"[2]; 40 °C, 0 months",LT 0.05 % (w/w)
same,Assay (intact epirubicin hydrochloride),"[2]; 40 °C, 0 months, hydrochloride",99.2 % (w/w)
same,Assay (intact epirubicin hydrochloride),"[2]; 40 °C, 1 month, hydrochloride",99.2 % (w/w)
same,Doxorubicinone,"[2]; 40 °C, 1 month, hydrochloride",LT 0.05 % (w/w)
same,Assay (intact epirubicin hydrochloride),"[2]; 40 °C, 3 months, hydrochloride",99.1 % (w/w)
same,Doxorubicinone,"[2]; 40 °C, 3 months, hydrochloride",LT 0.05 % (w/w)
same,Assay (intact epirubicin hydrochloride),"[2]; 40 °C, 6 months, hydrochloride",99.3 % (w/w)
same,Doxorubicinone,"[2]; 40 °C, 6 months, hydrochloride",LT 0.05* % (w/w)
same,Doxorubicinone,"[2]; 100 °C, 0 months",LT 0.05 % (w/w)
same,Assay (intact epirubicin hydrochloride),"[2]; 100 °C, 0 months, hydrochloride",99.2 % (w/w)
same,Assay (intact epirubicin hydrochloride),"[2]; 100 °C, 1 month, hydrochloride",98.3 % (w/w)
same,Doxorubicinone,"[2]; 100 °C, 1 month, hydrochloride",LT 0.5** % (w/w)
same,Doxorubicinone,"[2]; 100 °C, 1 month, listed as crystalline monohydrate of epirubicin hydrochloride, hydrochloride",less than 0.5 % (w/w)
"COc1cccc2c1C(=O)c1c(O)c3c(c(O)c1C2=O)C[C@@](O)(C(=O)CO)C[C@@H]3O[C@H]1C[C@H](N)[C@H](O)[C@H](C)O1 [Example 2, epirubicin hydrochloride]","Hygroscopic capacity compared with the Example 1 monohydrate (TABLE 6-1), in words",[1]; data not shown,almost identical results
same,"Thermostability compared with the Example 1 monohydrate (TABLE 5-1), in words","[2]; 25, 40, 100 °C, data not shown",almost identical results
"COc1cccc2c1C(=O)c1c(O)c3c(c(O)c1C2=O)C[C@@](O)(C(=O)CO)C[C@@H]3O[C@H]1C[C@H](N)[C@H](O)[C@H](C)O1 [Example M1, epirubicin hydrochloride]",Doxorubicin (NMT 1%),[3]; 0 weeks,0.29 % (w/w)
same,Doxorubicinone (Aglycone) (NMT 1%),[3]; 0 weeks,< 0.05 % (w/w)
same,Total Impurities (NMT 2%),[3]; 0 weeks,0.30 % (w/w)
same,Doxorubicin (NMT 1%),"[3]; 1 week, hydrochloride",0.27 % (w/w)
same,Doxorubicinone (Aglycone) (NMT 1%),"[3]; 1 week, hydrochloride",0.52 % (w/w)
same,Total Impurities (NMT 2%),"[3]; 1 week, hydrochloride",1.20 % (w/w)
same,Unknown impurity RRT 1.2 (NMT 0.15%),"[3]; 1 week, hydrochloride",0.06 % (w/w)
same,Unknown impurity RRT 1.6 (NMT 0.15%),"[3]; 1 week, hydrochloride",0.08 % (w/w)
same,Unknown impurity RRT 1.7 (NMT 0.15%),"[3]; 1 week, hydrochloride",0.12 % (w/w)
same,Doxorubicin (NMT 1%),[3]; 2 weeks,0.32 % (w/w)
same,Doxorubicinone (Aglycone) (NMT 1%),"[3]; 2 weeks, hydrochloride",0.57 % (w/w)
same,Total Impurities (NMT 2%),"[3]; 2 weeks, hydrochloride",1.60 % (w/w)
same,Unknown impurity RRT 1.1 (NMT 0.15%),"[3]; 2 weeks, hydrochloride",0.11 % (w/w)
same,Unknown impurity RRT 1.2 (NMT 0.15%),"[3]; 2 weeks, hydrochloride",0.13 % (w/w)
same,Unknown impurity RRT 1.6 (NMT 0.15%),"[3]; 2 weeks, hydrochloride",0.18 % (w/w)
same,Unknown impurity RRT 1.7 (NMT 0.15%),"[3]; 2 weeks, hydrochloride",0.16 % (w/w)
same,Doxorubicin (NMT 1%),"[3]; 3 weeks, hydrochloride",0.33 % (w/w)
same,Doxorubicinone (Aglycone) (NMT 1%),"[3]; 3 weeks, hydrochloride",0.61 % (w/w)
same,Total Impurities (NMT 2%),"[3]; 3 weeks, hydrochloride",1.80 % (w/w)
same,Unknown impurity RRT 1.1 (NMT 0.15%),"[3]; 3 weeks, hydrochloride",0.14 % (w/w)
same,Unknown impurity RRT 1.2 (NMT 0.15%),"[3]; 3 weeks, hydrochloride",0.14 % (w/w)
same,Unknown impurity RRT 1.6 (NMT 0.15%),"[3]; 3 weeks, hydrochloride",0.24 % (w/w)
same,Unknown impurity RRT 1.7 (NMT 0.15%),"[3]; 3 weeks, hydrochloride",0.20 % (w/w)
same,Doxorubicin (NMT 1%),[3]; 4 weeks,0.33 % (w/w)
same,Doxorubicinone (Aglycone) (NMT 1%),"[3]; 4 weeks, hydrochloride",0.61 % (w/w)
same,Total Impurities (NMT 2%),"[3]; 4 weeks, hydrochloride",2.3* % (w/w)
same,Total amount of unknown impurities,"[3]; 4 weeks, hydrochloride",1.36 % (w/w)
same,Unknown impurity RRT 1.1 (NMT 0.15%),"[3]; 4 weeks, hydrochloride",0.18 % (w/w)
same,Unknown impurity RRT 1.2 (NMT 0.15%),"[3]; 4 weeks, hydrochloride",0.18 % (w/w)
same,Unknown impurity RRT 1.6 (NMT 0.15%),"[3]; 4 weeks, hydrochloride",0.46 % (w/w)
same,Unknown impurity RRT 1.7 (NMT 0.15%),"[3]; 4 weeks, hydrochloride",0.31 % (w/w)
same,"D(v/0.5), mean diameter based on the volume of the particles",[4],4.62 μm
